Experimental data taken from US7939567B2, “Dextromethorphan-based method for treating acne” (Blue Blood Biotech Corp., priority 2006, dated 2011).

Assays:
Propionibacterium acnes = assay: MIC test of P. acnes (broth dilution, OD595); format: cell-based; parameters: key: +: Growth Inhibition; —: No Growth Inhibition; details: anaerobic, 37° C., 96 hours
Experimental: Prepared DM stock solution in 500,000 ppm (50%). Added 0.25 g DM into […] DMSO and stirred until mixed well. Then serial diluted 500,000 ppm DM. Centrifuged 5 ml Propionibacterium acnes in RCM (Reinforced Clostridial Medium) culture. Adjusted concentration of bacteria cell in medium by 20 times dilution about OD595=0.1×10^6 CFU/ml. Dispersed 200 μl bacteria cell in medium in aliquot to each 96-well plate. Mixed medium including bacteria cell and 2 μl DM, triplicate tests at each concentration. Bacteria cultured under anaerobic at 37° C. for 96 hours and measured the value at OD595. MIC meant the lowest concentration of anti-bacterial agent that sufficient to suppress the growth of bacteria (e.g. growth inhibition).

P. acnes = assay: DM disc diffusion on P. acnes lawn; format: cell-based, Propionibacterium acnes; details: 37° C., 96 hours
Experimental: Spread 0.1 ml medium including bacteria cells which OD595 value was about 0.1×10^6 CFU/ml onto RCM agar plate. Pasted 0.8 cm filter paper and dropped 20 μl of DM into it. Bacteria were cultured under anaerobic at 37° C. for 96 hours and the size of the antibiotic circle was measured.

Bacteroides fragilis = assay: MIC test of B. fragilis (thioglycollate broth); format: cell-based; parameters: key: +: Growth Inhibition; —: No Growth Inhibition; details: anaerobic, 24 h
Experimental: Bacteroides fragilis growing in 18-24 hours in the anaerobic thioglycollate broth was used to formulate the suspension of bacteria cells of McFarland 0.5. Diluted 0.5 g/ml DMSO stock solution with anaerobic Thioglycollate broth. Added 1000 μl anaerobic Thioglycollate broth into 1000 μl of DM diluent with 1:1 ratio, and then put into the anaerobic incubator to incubate for 24 h.

E. coli = assay: DM disc diffusion on E. coli lawn; format: cell-based; details: 37° C., 96 hours
Experimental: Base for antimicrobial disk diffusion Susceptibility Testing is made of Mueller Hinton II agar obtained from Becton, Dickinson and Company, France.
(§1) Prepared Mueller-Hinton-II-agar by suspending 38 g of the powder in 1L of double-distilled water. Autoclaved the agar at 121° C. for 15 min. t The agar was poured into each agar plate and waited for solidifying. E. coli of 1×10^5 CFU in 100 μl medium was spread on to the agar plate and were grown for 96 hours.

Staphylococcus aureaus = assay: DM disc diffusion on S. aureus lawn; format: cell-based; details: S. aueaus lawn, 37° C., 96 hours
Experimental: Based for antimicrobial disk diffusion Susceptibility Testing is Mueller Hinton II agar obtained from Becton, Dickinson and Company, France.
as §1, with “min.” for “min. t”, “solidifying. S. aureaus” for “solidifying. E. coli”, “of 10^5” for “of 1×10^5”, “medium were” for “medium was”, “on” for “on to”

TNF-α = assay: LPS-induced macrophage release of TNF-α (THP-1, ELISA); format: cell-based, human; details: for concentration of TNF-α in the medium of THP-1 cells after LPS stimulation: pretreated 1 hour, various concentrations, then LPS 24 hours
Experimental: (§2) The monocytic THP-1 cells were cultured and differentiated into macrophages. The macrophages were pretreated with various concentrations of Dextromethophan or naloxone for 1 hour and subsequently incubated with lipopolysaccharide (LPS) for 24 hours.
(§3) RPMI 1640 medium, phorbol 12-myristate-13-acetate (PMA), LPS (Escherichia coli 0111:B4) and naloxone were purchased from Sigma. The human THP-1 monocytic cell line was purchased from Food Industry Research and Development Institute, Hsin Chu, Taiwan. Levels of tumor necrosis factor-α (TNF-α), interleukin-6 (IL-6) and monocyte chemoattractant protein-1 (MCP-1) in medium were determined with monoclonal antibody based ELISA kits purchased from R&D Systems (Minneapolis, Minn., USA), and all animal experiments were approved by the Institutional Animal Care and Use Committee.
The THP-1 cells were grown in RPMI-1640 medium containing 10% fetal bovine serum at 37° C. in 5% CO2. The cells were differentiated to macrophages after treatment with 100 nM PMA to the culture for 24 hours. The cell suspension (5×10^5) was added in 0.5 mL into each well of the tissue culture plates. LPS was dissolved in sterile water and stored at −70[…] in aliquots. In treatment group, the THP-1 cell culture was pretreated for 1 hour with various concentrations of dextromethorphan or naloxone and followed by treatment with 10 μg/mL LPS for up to 24 hours. […] The levels of TNF-α, IL-6 and MCP-1 in the supernatants were determined using ELISA kits.
(§4) The inflammatory reaction can be inhibited by dextromethorphan at less than 0.01 μM. The THP-1 cell treated with LPS at 1 Unit/ml in the presence of dextromethorphan for 24 hrs and the TNF-α and IL-6 released in the culture medium was measured with ELISA (FIG. 1). […] The results are expressed as mean±SD of 3 experiments. ** p<0.01 and *** p<0.001 are compared with the LPS-treated cultures.
(§5) Effect of naloxone treatment on the LPS-induced macrophage release of TNF-α (A), IL-6 (B) and MCP-1 (C). […] The results are expressed as mean±SD of 3 experiments. * p<0.05; ** p<0.01; *** p<0.001 compared with the LPS-treated cultures (FIG. 2).

IL-6 = assay: LPS-induced macrophage release of IL-6 (THP-1, ELISA); format: cell-based, human; details: pretreated 1 hour, various concentrations, then LPS 24 hours
Experimental: as §2, §3
(§6) The THP-1 cells were grown in RPMI-1640 medium containing 10% fetal bovine serum at 37° C. in 5% CO2. […] The levels of TNF-α, IL-6 and MCP-1 in the supernatants were determined using ELISA kits.
as §4, with “cultures. […]” for “cultures.”

MCP-1 = assay: LPS-induced macrophage release of MCP-1 (THP-1, ELISA); format: cell-based, human; details: pretreated 1 hour, various concentrations, then LPS 24 hours
Experimental: as §2, §3
as §6, with “CO2. The cells were differentiated to macrophages after treatment with 100 nM PMA to the culture for 24 hours.” for “CO2.”
as §5

TNF-a = details: LPS-induced endotoxemia in rodents; mitigation of circulatory failure and mortality; cited from earlier work
[1] = humans, oral dosage form, either alone or with quinidine; cited from earlier work

## COc1ccc2c(c1)[C@]13CCCC[C@@H]1[C@H](C2)N(C)CC3 [DM, (+)-3-methoxy-17-methyl-9a,13a,14a-morphinan]
Propionibacterium acnes; DM 125 ppm (0.0125%)
  Growth Inhibition: —
Propionibacterium acnes; DM 250 ppm (0.025%)
  Growth Inhibition: —
Propionibacterium acnes; DM 500 ppm (0.05%)
  Growth Inhibition: +
Propionibacterium acnes; DM 1000 ppm (0.1%)
  Growth Inhibition: +
Propionibacterium acnes; DM 1250 ppm (0.125%)
  Growth Inhibition: +
Propionibacterium acnes; DM 2500 ppm (0.25%)
  Growth Inhibition: +
Propionibacterium acnes; DM 5000 ppm (0.5%)
  Growth Inhibition: +
P. acnes; 2.5% DM, Disc No. 6, anaerobic
  Diameter of clear zone: 12 mm
P. acnes; 5% DM, Disc No. 5, anaerobic
  Diameter of clear zone: 34 mm
Bacteroides fragilis; DM 500 ppm (0.05%)
  Growth Inhibition: —
Bacteroides fragilis; DM 1000 ppm (0.1%)
  Growth Inhibition: —
Bacteroides fragilis; DM 1250 ppm (0.125%)
  Growth Inhibition: +
Bacteroides fragilis; DM 2500 ppm (0.25%)
  Growth Inhibition: +
Bacteroides fragilis; DM 5000 ppm (0.5%)
  Growth Inhibition: +
E. coli; 2.5% DM
  Diameter of clear zone: 9.5 mm
E. coli; 5% DM
  Diameter of clear zone: 13 mm
E. coli; 10% DM
  Diameter of clear zone: 18 mm
Staphylococcus aureaus; 5% DM
  Diameter of clear zone: 10 mm
Staphylococcus aureaus; 10% DM
  Diameter of clear zone: 14 mm
TNF-α; THP-1 cell treated with LPS for 24 hrs, TNF-α and IL-6 released in medium measured with ELISA
  concentration at which the inflammatory reaction can be inhibited: less than 0.01 μM
TNF-α
  concentration of TNF-α in the medium of THP-1 cells after LPS stimulation: significantly reduced
IL-6
  concentration of IL-6 in the medium of THP-1 cells after LPS stimulation: significantly reduced
MCP-1
  concentration of MCP-1 in the medium of THP-1 cells after LPS stimulation: significantly reduced
TNF-a
  effect on TNF-a, NO and superoxide anion: inhibits
[1]
  well tolerated oral dosage: up to 120 milligrams (mg) per day

## C=CCN1CC[C@]23c4c5ccc(O)c4O[C@H]2C(=O)CC[C@@]3(O)[C@H]1C5 [naloxone, 17-allyl-4,5α-epoxy-3,14-dihydroxymorphinan-6-one]
TNF-α
  concentration of TNF-α in the medium of THP-1 cells after LPS stimulation: significantly reduced
IL-6
  concentration of IL-6 in the medium of THP-1 cells after LPS stimulation: significantly reduced
MCP-1
  concentration of MCP-1 in the medium of THP-1 cells after LPS stimulation: significantly reduced

## Oc1cc(Cl)ccc1Oc1ccc(Cl)cc1Cl [Triclosan]
P. acnes; 0.1% Triclosan, Disc No. 8, anaerobic
  Diameter of clear zone: 30 mm
